Data as given in US10106515B2, “1-(cyclopent-2-en-1-yl)-3-(2-hydroxy-3-(arylsulfonyl)phenyl)urea derivatives as CXCR2 inhibitors” (GLAXOSMITHKLINE INTELLECTUAL PROPERTY DEVELOPMENT LIMITED, priority 2014, dated 2018).
Where a name gives a salt, the structure may show the parent alone. Read-outs that look alike come from different tables or passages of the source.

Legend:
recombinant human CXCR2 = target: T1, recombinant human CXCR2 (Homo sapiens, UniProt P25025); assay: CXCR2 Tango assay; assay type: cell-based; settings: mean pIC50 of multiple test results; stimulated with 80 nM hCXCL1; reporter gene blue/green emission ratio; read-out: pIC50 (CXCR2 Tango assay) (converted)
T1 construct: TEV protease site; Gal4-VP16 transcription factor
T1 sequence (P25025 1-360): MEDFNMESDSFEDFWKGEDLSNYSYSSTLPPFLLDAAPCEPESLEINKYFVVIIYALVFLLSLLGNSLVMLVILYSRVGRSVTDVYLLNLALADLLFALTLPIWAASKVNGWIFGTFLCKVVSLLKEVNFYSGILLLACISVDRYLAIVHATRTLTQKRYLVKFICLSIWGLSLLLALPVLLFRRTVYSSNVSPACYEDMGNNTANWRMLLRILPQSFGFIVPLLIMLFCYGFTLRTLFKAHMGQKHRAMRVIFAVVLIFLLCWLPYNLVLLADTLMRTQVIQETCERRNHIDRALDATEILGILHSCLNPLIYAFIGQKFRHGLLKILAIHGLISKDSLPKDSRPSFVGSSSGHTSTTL
Procedure, shortened: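 A stable cell line carries human CXCR2 fused to a TEV site and Gal4-VP16, with protease-tagged arrestin. Cells (~10,000/well) were stimulated overnight at 37 °C with 80 nM hCXCL1 and a 10-point compound dilution. CCF4-AM beta-lactamase FRET (460/530 nm ratio) was read, normalized to hCXCL1 and DMSO, and mean pIC50 reported.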

[1] = system: upregulation of CD11b in GROα stimulated neutrophils in human whole blood; assay: Human whole blood assay (CD11b upregulation); assay type: cell-based; settings: Neutrophil, inhibition of CD11b upregulation, GROα 33 nM final, flow cytometry, read-out: pIC50 (human whole blood assay) (converted)
Procedure: The whole blood assay tested the compounds' ability to inhibit the upregulation of CD11b in GROα stimulated neutrophils in human whole blood.
Blood was withdrawn by venipuncture from consented adults and poured into a Sterilin tube containing an anti-coagulant Heparin (10 uL/mL of blood). All the test compounds were dissolved in DMSO to 4 mM and serial diluted across the plate, 1 in 3 to provide 10 point dose response curves. The compounds were then diluted 100 fold in -PBS [Phosphate buffered saline (without Calcium Chloride and Magnesium Chloride)] after which, 1 uL was dispensed in 96 U bottom Costar plates using an FX.
10 uL of blood was transferred to the compound plate using a multi-channel pipette, gently tapped and incubated for 15 minutes, at 37° C. After 15 minutes, the stimulant GROα was diluted to 100 nM in 0.1% BSA (Albumin Bovine Serum)-PBS and 5 uL is dispensed across the whole plate for a final concentration of 33 nM. The plate was gently tapped and incubated further for 15 minutes at 37° C. The plate was placed on ice for 1 minute before addition of 10 uL of an antibody cocktail consisting of CD11b-FITC (40 ug/mL) purchased from BioLegend (address: Cambridge Bioscience, Munro House, Trafalgar Way, Bar Hill, Cambridge, UK) and CD16-PE purchased from BD Pharmingen (address: The Danby Building, Edmung Halley Road, Oxford Science Park, Oxford, UK) (stock concentration 100 tests, 2 mL stock volume is diluted 1 in 5). The plate was placed on ice for 1 hour in the dark. The cells were then fixed using 200 uL/well of 1×FACS (Flow Activated Cell Sorting) Lyse solution (Becton and Dickinson-BD) and on ice for 20 minutes in the dark. The plate was centrifuged at 1600 rpm for 5 minutes and re-suspended with 200 uL of ice cold PBS. This step was repeated twice and on the final step the plate was re-suspended with 50 uL of ice cold -PBS for flow Cytometric analysis.
Samples were run on a Becton and Dickinson (BD)-Acurri C6 Flow Cytometer using a HyperCyt sampling apparatus (IntelliCyt) with a flow rate 2 uL/sec. CD11b upregulation is monitored in neutrophils and identified using a combination of both side scatter and CD16 expression.

| IC50 (recombinant human CXCR2) [µM] | IC50 ([1]; Homo sapiens) [µM] | IC50 [1] [µM] | Structure (SMILES) |
| --- | --- | --- | --- |
| ≤ 0.001 | 0.0251 to 2.51 | – | CC1=CCC[C@H]1NC(=O)Nc1ccc(Cl)c(S(=O)(=O)[C@H]2C[C@H](N3CCCC3)C2)c1O [Compound 192, 1-(4-chloro-2-hydroxy-3-((trans-3-(pyrrolidin-1-yl)cyclobutyl)sulfonyl)phenyl)-3-((R)-2-methylcyclopent-2-en-1-yl)urea] |
| ≤ 0.001 | – | 0.0251 to 2.51 | CC1=CCC[C@H]1NC(=O)Nc1ccc(Cl)c(S(=O)(=O)C(C)(F)F)c1O [Compound 194, (R)-1-(4-chloro-3-((1,1-difluoroethyl)sulfonyl)-2-hydroxyphenyl)-3-(2-methylcyclopent-2-en-1-yl)urea] |
| ≤ 0.01 | – | 0.0251 to 2.51 | CC1=CCC[C@H]1NC(=O)Nc1ccc(Cl)c(S(=O)(=O)N2CCNCC2)c1O [Compound 199, (R)-1-(4-chloro-2-hydroxy-3-(piperazin-1-ylsulfonyl)phenyl)-3-(2-methylcyclopent-2-en-1-yl)urea, trifluoroacetic acid salt] |
| ≤ 0.001 | – | 0.0251 to 2.51 | CCN1CCC(F)(S(=O)(=O)c2c(Cl)ccc(NC(=O)N[C@@H]3CCC=C3Cl)c2O)CC1 [Compound 200, (R)-1-(4-chloro-3-((1-ethyl-4-fluoropiperidin-4-yl)sulfonyl)-2-hydroxphenyl)-3-(2-chlorocyclopent-2-en-1-yl)urea] |

| Structure (SMILES) | IC50 (recombinant human CXCR2) [µM] | IC50 ([1]; Homo sapiens) [µM] | IC50 [1] [µM] |
| --- | --- | --- | --- |
| CC1=CCC[C@H]1NC(=O)Nc1ccc(Cl)c(S(=O)(=O)[C@H]2C[C@H](N(C)C)C2)c1O [Compound 193, 1-(4-chloro-3-((trans-3-(dimethylamino)cyclobutyl)sulfonyl)-2-hydroxyphenyl)-3-((R)-2-methylcyclopent-2-en-1-yl)urea] | ≤ 0.001 | – | 0.0251 to 2.51 |
